Values of other authors, collected in patent US20160120797A1, “ANTI-ACNE COMPOSITION AND METHODS OF USE THEREOF” (priority 2014, published 2016).

O=C(O)Cc1ccccc1Nc1c(Cl)cccc1Cl [Diclofenac sodium, 2-(2-(2,6-dichlorophenylamino)phenyl)acetic acid]
anti-bacterial activity (E. Coli): anti-bacterial activity | anti-bacterial activity (L. monocytogenes): anti-bacterial activity
